Experimental data published in US7371734B2, “Oligonucleotide compositions and their use for the modulation of immune responses” (Bioniche Life Sciences Inc., priority 2002, dated 2008).
Marks after values point to notes of the source that are not given here.

Tests used:
Human dendritic cells [1] = assay: Increase in cell size and granularity of DC (flow cytometry); type: cell-based; conditions: 100 μg polynucleotide, 48 hours
Summary of the method: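 Human dendritic cells from three donors, seeded at 1.0×10^5 cells/ml and exposed 48 hours to 100 μg of 6-base 3-OH, 5-OH polynucleotides. Flow cytometry; percentage of cells with forward scatter >500 units and side scatter >400 units.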

Human dendritic cells [2] = assay: Induction of IL-1beta production by DC (ELISA); type: cell-based; conditions: 100 μg, 48 hours
Summary of the method: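 Cells from three donors, seeded at 1.0×10^5 cells/ml, were exposed for 48 hours to 100 μg of 6-base polynucleotides. IL-1beta in culture supernatant measured by ELISA; values are fold increase over untreated control cells.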

Human dendritic cells [3] = assay: Induction of IFN-gamma production by DC (ELISA); type: cell-based; conditions: 100 μg, 48 hours
Summary of the method: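 Dendritic cells from three donors (1.0×10^5 cells/ml) were incubated 48 h with 100 μg of each polynucleotide. IFN-gamma in culture supernatant was measured by ELISA. Values are fold increase over untreated control cells.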

Human dendritic cells [4] = assay: CD80 levels at the DC cell surface (flow cytometry); type: cell-based; conditions: 100 μg, 48 hours
Summary of the method: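 Human dendritic cells from two donors, at 1.0×10^5 cells/ml, were exposed 48 h to 100 μg of 6-base polynucleotides. Surface CD80 was measured by flow cytometry with a FITC anti-CD80 antibody. Values are % CD80^hi DC.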

Human dendritic cells [5] = assay: OX-2 levels at the DC cell surface (flow cytometry); type: cell-based; conditions: DC from individual A, 48 hours
Experimental: Human dendritic cells were obtained from Clonetics (San Diego, Calif., USA) and were cultured in the medium recommended by Clonetics. DC were obtained from three different individuals (see Table 1). Major histocompatability typing was performed on each of these individuals and several of the HLA (human leukocyte antigens) types are shown.
DC from individual A were seeded in 1.0 ml at 1.0×10^5 cells/ml in 6-well flat-bottomed tissue culture plates for 48 hours with 1, 10 or 100 μg of 6 base N3A or N6A polynucleotides. The level of OX-2 at the cell surface was determined after 48 hours of incubation by flow cytometry using a FITC-conjugated monoclonal antibody directed to OX-2 (BioSPARK, Greenwich, Conn., USA) and analyzed by CELLQuest Pro. […] Results are expressed as the percentage of OX-2^hi DC following treatment.

female BALB/C mice = assay: Oral vaccination with hepatitis surface antigen, anti-HbsAg ELISA; type: in vivo; conditions: oral day 0, 7, 14, 450 nm; for IgA total at 1:2 dilution, mean ± SD: gut washes day 21; for Total IgG at 1:32 dilution, mean ± SD: plasma day 21
Experimental: Immunization with recombinant hepatitis B surface antigen combined with N6A or N6B polynucleotide was conducted on 6-8 week old female BALB/C mice (Charles River, St-Constant, Qc, Canada). Each mouse (5 mice per group) has received orally a solution containing: Saline (Group 1), HbsAg 10 μg (Group 2), HbsAg 10 μg+N6A 1 μg (Group 3), HbsAg 10 μg+N6A 10 μg (Group 4), HbsAg 10 μg+N6A 100 μg (Group 5), HbsAg 10 μg+N6B 1 μg (Group 6), HbsAg 10 μg+N6B 10 μg (Group 7) and HbsAg 10 μg+N6B 100 μg (Group 8) in a total volume of 50 μl at day 0, 7 and day 14. Plasma and gut washes were recovered at day 21. Gut washes (for IgA determination) were obtained by gently pipetting 0.2 ml of PBS containing protease inhibitors (10 μg pepstatin, 10 μg leupeptin, 10 μg antipain and 50 μg benzamidine).
Antibodies specific to HbsAg were detected and quantified by ELISA. Briefly, a solid phase of HbsAg protein (1.0 μg per well, overnight at 4° C.) was used to capture anti-HbsAg in the plasma or in the gut washes (1 hour at 37° C.), which were then detected with horseradish peroxidase-conjugated goat anti-mouse IgA (for gut washes) and goat anti-mouse total IgG (for plasma) following the instructions of the manufacturer (Clonetyping system, Southern Biotechnology Inc.). Data are expressed in Table 14 in OD (450 nm) as the mean±SD of 5 mice per group. […]

[6] = HbsAg 10 μg + polynucleotide 1 μg
[7] = HbsAg 10 μg + polynucleotide 10 μg
[8] = HbsAg 10 μg + polynucleotide 100 μg

| Substance | Percentage of DC showing a FCS > 500 units and a SSC > 400 units (Human dendritic cells [1]; DC isolated from individual A) | Percentage of DC showing a FCS > 500 units and a SSC > 400 units (Human dendritic cells [1]; DC isolated from individual B) | Percentage of DC showing a FCS > 500 units and a SSC > 400 units (Human dendritic cells [1]; DC isolated from individual C) | IL-1beta production by DC (fold increase compared to untreated DC) (Human dendritic cells [2]; DC isolated from individual A) | IL-1beta production by DC (fold increase compared to untreated DC) (Human dendritic cells [2]; DC isolated from individual B) | IL-1beta production by DC (fold increase compared to untreated DC) (Human dendritic cells [2]; DC isolated from individual C) | IFN-gamma production by DC (fold increase compared to untreated DC) (Human dendritic cells [3]; DC isolated from individual A) | IFN-gamma production by DC (fold increase compared to untreated DC) (Human dendritic cells [3]; DC isolated from individual B) | IFN-gamma production by DC (fold increase compared to untreated DC) (Human dendritic cells [3]; DC isolated from individual C) | The percentage of CD80^hi DC following treatment (Human dendritic cells [4]; DC from individual B) | The percentage of CD80^hi DC following treatment (Human dendritic cells [4]; DC from individual C) | The percentage of OX-2^hi DC following treatment (Human dendritic cells [5]; 1.0 μg) | The percentage of OX-2^hi DC following treatment (Human dendritic cells [5]; 10.0 μg) | The percentage of OX-2^hi DC following treatment (Human dendritic cells [5]; 100.0 μg) | IgA total at 1:2 dilution, mean ± SD (female BALB/C mice; [6]) | Total IgG at 1:32 dilution, mean ± SD (female BALB/C mice; [6]) | IgA total at 1:2 dilution, mean ± SD (female BALB/C mice; [7]) | Total IgG at 1:32 dilution, mean ± SD (female BALB/C mice; [7]) | IgA total at 1:2 dilution, mean ± SD (female BALB/C mice; [8]) | Total IgG at 1:32 dilution, mean ± SD (female BALB/C mice; [8]) |
| --- | --- | --- | --- | --- | --- | --- | --- | --- | --- | --- | --- | --- | --- | --- | --- | --- | --- | --- | --- | --- |
| 5′GGGAGG3′ [N6A] (unmodified DNA) | 9% | 22% | 21% | 1.0 fold | 1.1 fold | 0.9 fold | 1.0 fold | 1.0 fold | 1.0 fold | 15% | 17% | 64% | 62% | 64% | 0.662 ± 0.166 OD | 0.138 ± 0.055 OD | 0.853 ± 0.543 OD | 0.141 ± 0.044 OD | 0.650 ± 0.276 OD | 0.121 ± 0.055 OD |
| 5′GGGAGG3′ [N6B] (DNA, backbone not given here; further chemistry not fully specified) | 4% | 17% | 36% | 1.0 fold | 1.1 fold | 1.0 fold | 1.1 fold | 1.0 fold | 1.1 fold | 4% | 4% | – | – | – | 0.549 ± 0.242 OD | 0.104 ± 0.030 OD | 0.333 ± 0.156 OD | 0.225 ± 0.135 OD | 0.492 ± 0.074 OD | 0.120 ± 0.057 OD |
| 5′GGGTGG3′ [N3A] | 8% | 15% | 31% | 1.1 fold | 1.1 fold | 1.0 fold | 1.0 fold | 1.0 fold | 1.0 fold | 12% | 18% | 61% | 51** % | 51** % | – | – | – | – | – | – |
| 5′GGGTGG3′ [N3B] | 28% | 25% | 28% | 1.7 fold | 4.4 fold | 2.1 fold | 2.0 fold | 4.5 fold | 1.3 fold | 5% | 3% | – | – | – | – | – | – | – | – | – |
